In ChEMBL document CHEMBL4342480, “Design of Dual Inhibitors of Soluble Epoxide Hydrolase and LTA4 Hydrolase” (ACS Med Chem Lett, 2020):

How the values were obtained:
Type in all cases: functional
[1] = tested on: Macrophage; test: Antiinflammatory activity in Escherichia coli O6:K2:H1-induced human M1 macrophage assessed as change in 15-HEPE level at 1 uM preincubated for 10 mins followed by Escherichia coli O6:K2:H1-stimulation and measured after 180 mins by UPLC-MS/MS analysis relative to control
[2] = tested on: Macrophage; test: Antiinflammatory activity in Escherichia coli O6:K2:H1-induced human M1 macrophage assessed as change in 7-HDHA level at 1 uM preincubated for 10 mins followed by Escherichia coli O6:K2:H1-stimulation and measured after 180 mins by UPLC-MS/MS analysis relative to control
[3] = tested on: Macrophage; test: Antiinflammatory activity in Escherichia coli O6:K2:H1-induced human M1 macrophage assessed as change in PGD2 level at 1 uM preincubated for 10 mins followed by Escherichia coli O6:K2:H1-stimulation and measured after 180 mins by UPLC-MS/MS analysis relative to control
[4] = tested on: Macrophage; test: Antiinflammatory activity in Escherichia coli O6:K2:H1-induced human M1 macrophage assessed as change in 14-HDHA level at 1 uM preincubated for 10 mins followed by Escherichia coli O6:K2:H1-stimulation and measured after 180 mins by UPLC-MS/MS analysis relative to control
[5] = tested on: Macrophage; test: Antiinflammatory activity in Escherichia coli O6:K2:H1-induced human M1 macrophage assessed as change in 18-HEPE level at 10 uM preincubated for 10 mins followed by Escherichia coli O6:K2:H1-stimulation and measured after 180 mins by UPLC-MS/MS analysis relative to control
[6] = tested on: Macrophage; test: Antiinflammatory activity in Escherichia coli O6:K2:H1-induced human M2 macrophage assessed as change in 4-HDHA level at 1 uM preincubated for 10 mins followed by Escherichia coli O6:K2:H1-stimulation and measured after 180 mins by UPLC-MS/MS analysis relative to control
[7] = tested on: Macrophage; test: Antiinflammatory activity in Escherichia coli O6:K2:H1-induced human M2 macrophage assessed as change in 15-HEPE level at 10 uM preincubated for 10 mins followed by Escherichia coli O6:K2:H1-stimulation and measured after 180 mins by UPLC-MS/MS analysis relative to control
[8] = tested on: Macrophage; test: Antiinflammatory activity in Escherichia coli O6:K2:H1-induced human M2 macrophage assessed as change in 4-HDHA level at 10 uM preincubated for 10 mins followed by Escherichia coli O6:K2:H1-stimulation and measured after 180 mins by UPLC-MS/MS analysis relative to control
[9] = tested on: Macrophage; test: Antiinflammatory activity in Escherichia coli O6:K2:H1-induced human M2 macrophage assessed as change in 15-HETE level at 10 uM preincubated for 10 mins followed by Escherichia coli O6:K2:H1-stimulation and measured after 180 mins by UPLC-MS/MS analysis relative to control
[10] = tested on: Macrophage; test: Antiinflammatory activity in Escherichia coli O6:K2:H1-induced human M2 macrophage assessed as change in PGF2alpha level at 1 uM preincubated for 10 mins followed by Escherichia coli O6:K2:H1-stimulation and measured after 180 mins by UPLC-MS/MS analysis relative to control
[11] = tested on: Macrophage; test: Antiinflammatory activity in Escherichia coli O6:K2:H1-induced human M1 macrophage assessed as change in […] level at 1 uM preincubated for 10 mins followed by Escherichia coli O6:K2:H1-stimulation and measured after 180 mins by UPLC-MS/MS analysis relative to control
[12] = tested on: Macrophage; test: Antiinflammatory activity in Escherichia coli O6:K2:H1-induced human M1 macrophage assessed as change in 4-HDHA level at 10 uM preincubated for 10 mins followed by Escherichia coli O6:K2:H1-stimulation and measured after 180 mins by UPLC-MS/MS analysis relative to control
[13] = tested on: Macrophage; test: Antiinflammatory activity in Escherichia coli O6:K2:H1-induced human M2 macrophage assessed as change in PGE2 level at 10 uM preincubated for 10 mins followed by Escherichia coli O6:K2:H1-stimulation and measured after 180 mins by UPLC-MS/MS analysis relative to control
[14] = tested on: Macrophage; test: Antiinflammatory activity in Escherichia coli O6:K2:H1-induced human M2 macrophage assessed as change in 12-HETE level at 10 uM preincubated for 10 mins followed by Escherichia coli O6:K2:H1-stimulation and measured after 180 mins by UPLC-MS/MS analysis relative to control
[15] = tested on: Macrophage; test: Antiinflammatory activity in Escherichia coli O6:K2:H1-induced human M2 macrophage assessed as change in 12-HEPE level at 1 uM preincubated for 10 mins followed by Escherichia coli O6:K2:H1-stimulation and measured after 180 mins by UPLC-MS/MS analysis relative to control
[16] = tested on: Macrophage; test: Antiinflammatory activity in Escherichia coli O6:K2:H1-induced human M2 macrophage assessed as change in total LTB4 level at 10 uM preincubated for 10 mins followed by Escherichia coli O6:K2:H1-stimulation and measured after 180 mins by UPLC-MS/MS analysis relative to control
[17] = tested on: Macrophage; test: Antiinflammatory activity in Escherichia coli O6:K2:H1-induced human M2 macrophage assessed as change in […] level at 1 uM preincubated for 10 mins followed by Escherichia coli O6:K2:H1-stimulation and measured after 180 mins by UPLC-MS/MS analysis relative to control
[18] = tested on: Macrophage; test: Antiinflammatory activity in Escherichia coli O6:K2:H1-induced human M2 macrophage assessed as change in LTB4 level at 1 uM preincubated for 10 mins followed by Escherichia coli O6:K2:H1-stimulation and measured after 180 mins by UPLC-MS/MS analysis relative to control
[19] = tested on: Macrophage; test: Antiinflammatory activity in Escherichia coli O6:K2:H1-induced human M1 macrophage assessed as change in 5.15-dlHETE level at 10 uM preincubated for 10 mins followed by Escherichia coli O6:K2:H1-stimulation and measured after 180 mins by UPLC-MS/MS analysis relative to control
[20] = tested on: Macrophage; test: Antiinflammatory activity in Escherichia coli O6:K2:H1-induced human M2 macrophage assessed as change in 18-HEPE level at 10 uM preincubated for 10 mins followed by Escherichia coli O6:K2:H1-stimulation and measured after 180 mins by UPLC-MS/MS analysis relative to control
[21] = tested on: Macrophage; test: Antiinflammatory activity in Escherichia coli O6:K2:H1-induced human M1 macrophage assessed as change in 17-HDHA level at 1 uM preincubated for 10 mins followed by Escherichia coli O6:K2:H1-stimulation and measured after 180 mins by UPLC-MS/MS analysis relative to control
[22] = tested on: Macrophage; test: Antiinflammatory activity in Escherichia coli O6:K2:H1-induced human M2 macrophage assessed as change in 15-HETE level at 1 uM preincubated for 10 mins followed by Escherichia coli O6:K2:H1-stimulation and measured after 180 mins by UPLC-MS/MS analysis relative to control
[23] = tested on: Macrophage; test: Antiinflammatory activity in Escherichia coli O6:K2:H1-induced human M2 macrophage assessed as change in LTB4 level at 10 uM preincubated for 10 mins followed by Escherichia coli O6:K2:H1-stimulation and measured after 180 mins by UPLC-MS/MS analysis relative to control
[24] = tested on: Macrophage; test: Antiinflammatory activity in Escherichia coli O6:K2:H1-induced human M2 macrophage assessed as change in 17-HDHA level at 1 uM preincubated for 10 mins followed by Escherichia coli O6:K2:H1-stimulation and measured after 180 mins by UPLC-MS/MS analysis relative to control

Molecule `O=C(Cc1ccc(Oc2nc3ccccc3s2)cc1F)NCCc1ccc(F)cc1` has an Activity [1] of 97%, an Activity [2] of 113% and an Activity [3] of 127%. It also gave an Activity [4] of 110%, an Activity [5] of 73% and an Activity [6] of 82%. It also gave an Activity [7] of 120%, an Activity [8] of 78% and an Activity [9] of 123%. The Activity [10] was 63%, the Activity [11] was 134% and the Activity [12] was 72%. For the same molecule, the Activity [13] was 51%, the Activity [14] was 114% and the Activity [15] was 78%. For the same molecule, the Activity [16] was 72%, the Activity [17] was 64% and the Activity [18] was 72%. It also gave an Activity [19] of 97%, an Activity [20] of 96% and an Activity [21] of 97%. The Activity [22] was 82%, the Activity [23] was 23% and the Activity [24] was 106%.
